The record followed here is patent publication US10155768B2, “Fused pyrimidine compound or salt thereof” (TAIHO PHARMACEUTICAL CO., LTD., priority 2016, dated 2018).

A short description of the first series: Evaluation of stability in liver microsome. To be noted: mouse liver microsome 0.25 mg/mL, 1 μM test compound, 37° C. for 30 minutes. In general terms: Liver microsomes are vesicles of endoplasmic reticulum, rich in cytochrome P450 enzymes.
Take `COCc1ccc(NC(=O)c2c(C#Cc3cncnc3)n(C3(C)CC3)c3ncnc(N)c23)cc1` [Example 196, 4-amino-N-(4-(methoxymethyl)phenyl)-7-(1-methylcyclopropyl)-6-(pyrimidin-5-ylethynyl)-7H-pyrrolo[2,3-d]pyrimidine-5-carboxamide]: the “Remaining (%)” value turned out to be 53%. Still for that read-out and setting: next, `COCc1ccc(NC(=O)c2c(C#Cc3cncs3)n(C3(C)CC3)c3ncnc(N)c23)cc1` [Example 193, 4-amino-N-[4-(methoxymethyl)phenyl]-7-(1-methylcyclopropyl)-6-(thiazol-5-ylethynyl)-7H-pyrrolo[2,3-d]pyrimidine-5-carboxamide]: 51%; `COCc1ccc(NC(=O)c2c(C#Cc3c(C)noc3C)n(C3(C)CC3)c3ncnc(N)c23)cc1` [Example 184, 4-amino-6-((3,5-dimethylisoxazol-4-yl)ethynyl)-N-(4-(methoxymethyl)phenyl)-7-(1-methylcyclopropyl)-7H-pyrrolo[2,3-d]pyrimidine-5-carboxamide]: 58%; `COCc1ccc(NC(=O)c2c(C#CCN3CCN(C)CC3)n(C3(C)CC3)c3ncnc(N)c23)cc1` [Example 132, 4-amino-N-(4-(methoxymethyl)phenyl)-7-(1methylcyclopropyl)-6-(3-(4-methylpiperazin-1-yl)prop-1-yn-1-yl)-7H-pyrrolo[2,3-d]pyrimidine-5-carboxamide]: 77%. On to `COCc1ccc(NC(=O)c2c(C#Cc3ccc4c(c3)NCCO4)n(C3(C)CC3)c3ncnc(N)c23)cc1` [Example 158, 4-amino-6-((3,4-dihydro-2H-benzo[b][1,4]oxazin-6-yl)ethynyl)-N-(4-(methoxymethyl)phenyl)-7-(1-methylcyclopropyl)-7H-pyrrolo[2,3-d]pyrimidine-5-carboxamide], for which the “Remaining (%)” value worked out at 85%. `CCOc1c(C(=O)Nc2ccc(-c3ccco3)cc2)c2c(N)ncnc2n1C1(C)CC1` [Example 116, 4-amino-6-ethoxy-N-(4-(furan-2-yl)phenyl)-7-(1-methylcyclopropyl)-7H-pyrrolo[2,3-d]pyrimidine-5-carboxamide]: the “Remaining (%)” value is 55%. `COCc1ccc(NC(=O)c2cn(C(C)(C)C(F)F)c3ncnc(N)c23)cc1` [Example 50, 4-amino-7-(1,1-difluoro-2-methylpropan-2-yl)-N-(4-(methoxymethyl)phenyl)-7H-pyrrolo[2,3-d]pyrimidine-5-carboxamide]: the “Remaining (%)” value is given as 53%.

Take `COCc1ccc(NC(=O)c2cn(C(C)(C)C)c3ncnc(N)c23)c(OC)c1` [Example 33, 4-amino-7-(tert-butyl)-N-(2-methoxy-4-(methoxymethyl)phenyl)-7H-pyrrolo[2,3-d]pyrimidine-5-carboxamide]: the “Remaining (%)” value turned out to be 57%. On the same count and under the same terms, next, `COCc1ccc(NC(=O)c2c(C#CCC3(O)CCC3)n(C3(C)CC3)c3ncnc(N)c23)cc1` [Example 103, 4-amino-6-(3-(1-hydroxycyclobutyl)prop-1-yn-1-yl)-N-(4-(methoxymethyl)phenyl)-7-(1-methylcyclopropyl)-7H-pyrrolo[2,3-d]pyrimidine-5-carboxamide]: 60%; `COCCN(C)CC#Cc1c(C(=O)Nc2ccc(COC)cc2)c2c(N)ncnc2n1C1(C)CC1` [Example 197, 4-amino-6-(3-((2-methoxyethyl)(methyl)amino)prob-1-yn-1-yl)-N-(4-(methoxymethyl)phenyl)-7-(1-methylcyclopropyl)-7H-pyrrolo[2,3-d]pyrimidine-5-carboxamide]: 52%. As for `COCc1ccc(NC(=O)c2c(C#CCN(C)C)n(C3(C)CC3)c3ncnc(N)c23)cc1` [Example 198, 4-amino-6-(3-(dimethylamino)prop-1-yn-1-yl)-N-(4-(methoxymethyl)phenyl)-7-(1-methylcyclopropyl)-7H-pyrrolo[2,3-d]pyrimidine-5-carboxamide], the “Remaining (%)” value was found to be 57%. As for `Nc1ncnc2c1c(C(=O)Nc1ccc(Oc3ccccc3)cc1)cn2C1CCCC1` [Compound 2 of Comparative Examples, 4-amino-7-cyclopentyl-N-(4-phenoxyphenyl)-7H-pyrrolo[2,3-d]pyrimidine-5-carboxamide, reference compound], the “Remaining (%)” value came out at 0%. Still for that read-out and setting: next, `COCc1ccc(NC(=O)c2c(C#CC3CCN(C)CC3)n(C3(C)CC3)c3ncnc(N)c23)cc1` [Example 183, 4-amino-N-(4-(methoxymethyl)phenyl)-7-(1-methylcyclopropyl)-6-((1-methylpiperidin-4-yl)ethynyl)-7H-pyrrolo[2,3-d]pyrimidine-5-carboxamide]: 77%. On the same count and under the same terms, next, `COCc1ccc(NC(=O)c2cn(C3(C)CC3)c3ncnc(N)c23)cc1F` [Example 48, 4-amino-N-(3-fluoro-4-(methoxymethyl)phenyl)-7-(1-methylcyclopropyl)-7H-pyrrolo[2,3-d]pyrimidine-5-carboxamide]: 58%; `COCc1ccc(NC(=O)c2c(SC)n(C3(C)CC3)c3ncnc(N)c23)cc1` [Example 133, 4-amino-N-(4-methoxymethyl)phenyl-7-(1-methylcyclopropyl)-6-(methylthio)-7H-pyrrolo[2,3-d]pyrimidine-5-carboxamide]: 70%.

In the case of `COCc1ccc(NC(=O)c2cn(C3(C)CC3)c3ncnc(N)c23)cc1` [Example 36, 4-amino-N-(4-(methoxymethyl)phenyl)-7-(1-methylcyclopropyl)-7H-pyrrolo[2,3-d]pyrimidine-5-carboxamide], the “Remaining (%)” value came to 73%. Still for that read-out and setting: next, `COCc1ccc(NC(=O)c2c(OC[C@@H]3CCCO3)n(C3(C)CC3)c3ncnc(N)c23)cc1` [Example 97, (S)-4-amino-N-(4-(methoxymethyl)phenyl)-7-(1-methylcyclopropyl)-6-((tetrahydrofuran-2-yl)methoxy)-7H-pyrrolo[2,3-d] pyrimidine-5-carboxamide]: 70%; `COCc1ccc(NC(=O)c2c(C#Cc3ccc(OC)nc3)n(C3(C)CC3)c3ncnc(N)c23)cc1` [Example 192, 4-amino-N-(4-(methoxymethyl)phenyl)-6-((6-methoxypyridin-3-yl)ethynyl)-7-(1-methylcyclopropyl)-7H-pyrrolo[2,3-d]pyrimidine-5-carboxamide]: 79%. `COCc1ccc(NC(=O)c2c(C#Cc3cccnc3)n(C3(C)CC3)c3ncnc(N)c23)cc1` [Example 94, 4-amino-N-[4-(methoxymethyl)phenyl]-7-(1-methylcyclopropyl)-6-(pyridin-3-ylethynyl)-7H-pyrrolo[2,3-d]pyrimidine-5-carboxamide]: the “Remaining (%)” value turned out to be 60%. Same read-out and setting: the same measure for `CCn1nccc1C#Cc1c(C(=O)Nc2ccc(COC)cc2)c2c(N)ncnc2n1C1(C)CC1` [Example 114, 4-amino-6-((1-ethyl-1H-pyrazol-5-yl)ethynyl)-N-(4-(methoxymethyl)phenyl)-7-(1-methylcyclopropyl)-7H-pyrrolo[2,3-d]pyrimidine-5-carboxamide]: 55%; for `C=Cc1c(C(=O)Nc2ccc(COC)cc2)c2c(N)ncnc2n1C1(C)CC1` [Example 65, 4-amino-N-(4-(methoxymethyl)phenyl)-7-(1-methylcyclopropyl)-6-vinyl-7H-pyrrolo[2,3-d]pyrimidine-5-carboxamide]: 79%. On the same count and under the same terms, next, `COCc1ccc(NC(=O)c2c(-c3ccccc3)n(C3(C)CC3)c3ncnc(N)c23)cc1` [Example 154, 4-amino-N-(4-(methoxymethyl)phenyl)-7-(1-methylcyclopropyl)-6-phenyl-7H-pyrrolo[2,3-d]pyrimidine-5-carboxamide]: 50%; `COCc1ccc(NC(=O)c2c(C#CCC3(O)CCOCC3)n(C3(C)CC3)c3ncnc(N)c23)cc1` [Example 143, 4-amino-6-(3-(4-hydroxytetrahydro-2H-pyran-4-yl)prop-1-yn-1-yl)-N-(4-(methoxymethyl)phenyl)-7-(1-methylcyclopropyl)-7H-pyrrolo[2,3-d]pyrimidine-5-carboxamide]: 68%; `COCc1ccc(NC(=O)c2c(-c3ccc(O)cc3)n(C3(C)CC3)c3ncnc(N)c23)cc1` [Example 148, 4-amino-6-(4-hydroxyphenyl)-N-(4-(methoxymethyl)phenyl)-7-(1-methylcyclopropyl)-7H-pyrrolo[2,3-d]pyrimidine-5-carboxamide]: 61%. Take `COCc1ccc(NC(=O)c2c(OCC3CCOCC3)n(C3(C)CC3)c3ncnc(N)c23)cc1` [Example 141, 4-amino-N-(4-(methoxymethyl)phenyl)-7-(1-methylcyclopropyl)-6-((tetrahydro-2H-pyran-4-yl)methoxy)-7H-pyrrolo[2,3-d]pyrimidine-5-carboxamide]: the “Remaining (%)” value worked out at 68%. For `COCc1ccc(NC(=O)c2c(C(C)=O)n(C3(C)CC3)c3ncnc(N)c23)cc1` [Example 64, 6-acetyl-4-amino-N-(4-(methoxymethyl)phenyl)-7-(1-methylcyclopropyl)-7H-pyrrolo[2,3-d]pyrimidine-5-carboxamide], the “Remaining (%)” value was found to be 89%. On to `COCc1ccc(NC(=O)c2c(OCC(C)C)n(C3(C)CC3)c3ncnc(N)c23)cc1` [Example 99, 4-amino-6-isobutoxy-N-(4-(methoxymethyl)phenyl)-7-(1-methylcyclopropyl)-7H-pyrrolo[2,3-d]pyrimidine-5-carboxamide], for which the “Remaining (%)” value was determined as 51%. `COCc1ccc(NC(=O)c2c(C#Cc3ccc[nH]3)n(C3(C)CC3)c3ncnc(N)c23)cc1` [Example 161, 6-((1H-pyrrol-2-yl)ethynyl)-4-amino-N-(4-(methoxymethyl)phenyl)-7-(1-methylcyclopropyl)-7H-pyrrolo[2,3-d]pyrimidine-5-carboxamide]: the “Remaining (%)” value stood at 68%. Same read-out and setting: the same measure for `COCc1ccc(NC(=O)c2c(C#CCC3(O)COC3)n(C3(C)CC3)c3ncnc(N)c23)cc1` [Example 125, 4-amino-6-(3-(3-hydroxyoxetan-3-yl)prop-1-yn-1-yl)-N-(4-(methoxymethyl)phenyl)-7-(1-methylcyclopropyl)-7H-pyrrolo[2,3-d]pyrimidine-5-carboxamide]: 74%.

The series is the same for the next values; noted with them: mouse liver microsome, 1 μM, 37° C., 30 minutes.
Regarding `Nc1ncnc2c1c(C(=O)Nc1ccc(Oc3ccccc3)cc1)cn2C1CCCC1` [Compound 2 of Comparative Examples, 4-amino-7-cyclopentyl-N-(4-phenoxyphenyl)-7H-pyrrolo[2,3-d]pyrimidine-5-carboxamide, reference compound], the “percentage of the remaining test compounds (remaining %)” value turned out to be 0%.
